Measurements as given in PMC2802001, “Binding of Natural and Synthetic Polyphenols to Human Dihydrofolate Reductase” (International Journal of Molecular Sciences, 2009).
“And” between values parts separate entries of the source, which are not always exact repeats. Identical values can stand only once. “Also recorded” adds a separate entry of the source.

How the values were obtained:
human DHFR [1] = molecular target: T1, human DHFR (Homo sapiens, UniProt P00374); assay: Fluorescence titration (quenching of tryptophan fluorescence) for binding to free DHFR; settings: for Binding to human DHFR (effect on enzyme fluorescence), in words / Kd: fluorescence quenching; for Kd: excitation 290 nm, enzyme 0.1 μM, pH 7.4, read-out: KD, dissociation constant for binding to human DHFR
T1 construct: purchased Sigma
T1 sequence (P00374 1-187): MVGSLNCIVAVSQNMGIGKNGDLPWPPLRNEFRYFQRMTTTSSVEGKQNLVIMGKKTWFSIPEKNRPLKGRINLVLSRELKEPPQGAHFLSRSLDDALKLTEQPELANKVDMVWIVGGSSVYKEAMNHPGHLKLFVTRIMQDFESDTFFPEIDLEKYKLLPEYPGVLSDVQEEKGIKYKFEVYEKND
Protocol: Highly purified tea polyphenols EGCG (>95%), ECG (>98%), EGC (>98%), and EC (>98%) were purchased from Sigma Chemical Co. (Madrid, Spain). Qgal, Qglc, Qrha and Qxyl were form Fluka (Madrid, Spain). […] To synthesize TMECG-QM, a TMECG solution (0.5 mM) in phosphate buffered saline (PBS), pH 7.0, was alkalinize at pH 8.5 with NaOH. The reaction was followed spectrophotometrically at 470 nm and, after completion, the sample was neutralized by adding HCl. Recombinant human DHFR was purchased from Sigma and its concentration was determined by MTX titration of enzyme fluorescence.
The fluorescence of DHFR is reduced on binding of substrates and inhibitors, and this property may be used as a convenient method for determining both the enzyme concentration and the dissociation constants of enzyme-ligands complexes. Dissociation constants for the binding of polyphenols to free DHFR were determined by fluorescence titration in an automatic-scanning Perkin-Elmer LS50B spectrofluorimeter with 1.0 cm light path cells and equipped with a 150W xenon (XBO) light source. The formation of the binary complex between the enzyme and the ligand was followed by measuring the quenching of tryptophan fluorescence of the enzyme upon addition of microliter volumes of a concentrated stock solution of ligand. Fluorescence emission spectra were recorded when DHFR fluorescence was excited at 290 nm. All measurements were corrected for dilution and the data from the titration curves were fitted as described previously. Titrations were performed in a buffer containing 2-(N-morpholino)ethanesulfonic acid (Mes, 0.025 M), sodium acetate (0.025 M), tris(hydroxymethyl)aminomethane (Tris 0.05 M), and NaCl (0.1 M), at pH 7.4.

human DHFR [2] = molecular target: T1, human DHFR; assay: Human DHFR activity assayed in the presence of tea catechins; assay type: biochemical
Protocol: In order to detect which components of these extracts were responsible for such inhibition, human DHFR activity was assayed in the presence of EC, EGC, ECG or EGCG. […] The effective binding of ECG to free human DHFR was determined by following the decrease in enzyme fluorescence that occurs after formation of the enzyme-inhibitor complex (Figure 3).

[3] = Stability of TMECG in solution at neutral and alkaline pH; assay type: physicochemical
Protocol: Despite the excellent anticancer properties of tea catechins, they have at least one great limitation: their poor bioavailability. The reduced availability of catechins is related with their low stability in neutral or slightly alkaline solutions and their poor ability to cross cellular membranes. […] This synthetic catechin also bound human DHFR with an effective dissociation constant of 2.1 ± 0.2 μM (Figure 5; Table 1). […] By analogy with the oxidation of quercetin in alkaline solution [19], the proposed structure for this compound is depicted in Figure 6 and was identified as a quinone methide (TMECG-QM) with an open structure.
Highly purified tea polyphenols EGCG (>95%), ECG (>98%), EGC (>98%), and EC (>98%) were purchased from Sigma Chemical Co. (Madrid, Spain). Qgal, Qglc, Qrha and Qxyl were form Fluka (Madrid, Spain). TMECG was successfully synthesized (70% recovery) from catechin with the subsequent inversion of the stereochemistry at C-3 and by reaction of with 3,4,5-trimethoxybenzoylchloride (Sigma). To synthesize TMECG-QM, a TMECG solution (0.5 mM) in phosphate buffered saline (PBS), pH 7.0, was alkalinize at pH 8.5 with NaOH. The reaction was followed spectrophotometrically at 470 nm and, after completion, the sample was neutralized by adding HCl. Recombinant human DHFR was purchased from Sigma and its concentration was determined by MTX titration of enzyme fluorescence.

[4] = test system: different cancer cell lines; parameters: method as in PMID 18324763; settings: cited from earlier work
[5] = parameters: method as in PMID 18324763; settings: cited from earlier work
bovine liver DHFR = test system: bovine liver DHFR; parameters: method as in PMID 15781612; settings: cited from earlier work
chicken liver DHFR = test system: chicken liver DHFR; parameters: method as in PMID 15781612; settings: cited from earlier work

SMILES | Inhibition of human DHFR activity, in words (human DHFR [2]) | Kd (human DHFR [1]) | also measured
O=c1c(O[C@@H]2O[C@H](CO)[C@H](O)[C@H](O)[C@H]2O)c(-c2ccc(O)c(O)c2)oc2cc(O)cc(O)c12 [Qgal, quercetin-3-D-galactoside] |  | 22.8 ± 3.2 µM | 
COc1cc(C(=O)O[C@H](Cc2c(O)cc(O)cc2O)/C(O)=C2/C=CC(=O)C(O)=C2)cc(OC)c1OC [TMECG-QM] |  |  | Affinity for human DHFR relative to EGCG, ECG or TMECG (human DHFR [1]; compared with EGCG, ECG or TMECG): more than two-order of magnitude more strongly; Affinity for human DHFR relative to MTX (human DHFR [1]; compared with MTX): forty-times less
Oc1cc(O)c2c(c1)OC(c1cc(O)c(O)c(O)c1)C(O)C2 (single isomer, unassigned; (-)) [EGC, (-)-epigallocatechin] | did not inhibit |  | Binding to human DHFR (effect on enzyme fluorescence), in words (human DHFR [1]): did not bind
CC1OC(Oc2c(-c3ccc(O)c(O)c3)oc3cc(O)cc(O)c3c2=O)C(O)C(O)C1O (stereo not drawn) [Qrha, quercetin-3-rhamnoside] |  | 17.2 ± 2.4 µM | 
O=c1c(O[C@@H]2O[C@H](CO)[C@@H](O)[C@H](O)[C@H]2O)c(-c2ccc(O)c(O)c2)oc2cc(O)cc(O)c12 [Qglc, quercetin-3-β-D-glucoside] |  | 102 ± 9 µM | 
O=c1c(OC2OCC(O)C(O)C2O)c(-c2ccc(O)c(O)c2)oc2cc(O)cc(O)c12 [Qxyl, quercetin-3-D-xyloside] |  | 0.6 µM and 0.59 µM | 

Now from value to compound, other results behind:

Inhibition of human DHFR activity, in words (human DHFR [2]) | Kd (human DHFR [1]) | SMILES | also measured
did not inhibit |  | Oc1cc(O)c2c(c1)O[C@H](c1ccc(O)c(O)c1)[C@H](O)C2 [EC, (-)-epicatechin] | Binding to human DHFR (effect on enzyme fluorescence), in words (human DHFR [1]): did not modify the emission spectra; also recorded: did not bind
potent inhibitors | 1.8 µM and 1.78 µM | O=C(OC1Cc2c(O)cc(O)cc2OC1c1ccc(O)c(O)c1)c1cc(O)c(O)c(O)c1 (single isomer, unassigned; (-)) [ECG, (-)-epicatechin gallate] | 
 | 2.1 ± 0.2 µM | COc1cc(C(=O)O[C@@H]2Cc3c(O)cc(O)cc3OC2c2ccc(O)c(O)c2)cc(OC)c1OC (stereo partly drawn) [TMECG, 3-O-(3,4,5-trimethoxybenzoyl)-(-)-epicatechin] | Stability at alkaline pH ([3]; alkaline pH, band at 470 nm): rapidly evolves to an orange compound; Stability at neutral pH ([3]; neutral pH): highly stable; Antiproliferative activity [4]: significant antiproliferative activity; Bioavailability in vitro [5]: high bioavailability in vitro
potent inhibitors | 0.9 µM and 0.92 µM | O=C(O[C@@H]1Cc2c(O)cc(O)cc2O[C@@H]1c1cc(O)c(O)c(O)c1)c1cc(O)c(O)c(O)c1 [EGCG, (-)-epigallocatechin gallate] | Type of inhibition of DHF reduction (bovine liver DHFR): slow-binding inhibitor; Type of inhibition of DHF reduction (chicken liver DHFR): classical, reversible, competitive inhibitor
